Measured values as given in ChEMBL document CHEMBL5665443, “Enzyme Inhibitor Single Concentration assay results for EUbOPEN Chemogenomics Library” (2024).

Columns and labels:
Conditions in all cases: Compound Concentration 10.0 uM, Hit No
[1] = target: N-glycosylase/DNA lyase (Homo sapiens) (UniProt O15527);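 further: OGG1 cleavage of a quenched duplex DNA oligonucleotide, coupled to APE1 for strand incision, read as fluorescence at 594 nm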
Description: Inhibition of OGG1 by quantifying inhibition of OGG1-mediated cleavage and dissociation of quenched duplex DNA oligonucleotides, measured as fluorescence at 594 nm. To generate a functional strand incision and increase turn-over this assay is coupled to APE1.

[2] = target: G/T mismatch-specific thymine DNA glycosylase (Homo sapiens) (UniProt Q13569);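 further: human TDG cleavage of quenched duplex DNA oligonucleotides coupled to APE1, strand release read as fluorescence at 594 nm, inhibition of TDG activity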
Description: Inhibition of TDG by quantifying inhibition of TDG-mediated cleavage and dissociation of quenched duplex DNA oligonucleotides, measured as fluorescence at 594 nm. To generate a functional strand incision and increase turn-over this assay is coupled to APE1.

[3] = target: T1, Endonuclease 8-like 2 (Homo sapiens) (UniProt Q969S2);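 further: fluorescence at 594 nm reports NEIL2 cutting and release of a quenched double-stranded DNA oligo substrate, reduced signal read as inhibition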
T1 sequence (whole entry): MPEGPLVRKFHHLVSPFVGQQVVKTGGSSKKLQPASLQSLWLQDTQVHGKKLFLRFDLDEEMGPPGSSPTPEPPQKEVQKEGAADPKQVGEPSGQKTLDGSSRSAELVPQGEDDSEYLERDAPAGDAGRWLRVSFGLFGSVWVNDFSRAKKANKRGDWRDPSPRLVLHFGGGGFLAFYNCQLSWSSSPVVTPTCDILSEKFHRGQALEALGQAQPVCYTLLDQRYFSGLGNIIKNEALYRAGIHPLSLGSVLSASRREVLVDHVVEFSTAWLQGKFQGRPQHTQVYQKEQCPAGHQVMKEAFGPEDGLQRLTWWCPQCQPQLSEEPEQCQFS
Description: Inhibition of NEIL2 by quantifying inhibition of NEIL2-mediated cleavage and dissociation of quenched duplex DNA oligonucleotides, measured as fluorescence at 594 nm.

[4] = target: Endonuclease 8-like 1 (Homo sapiens) (UniProt Q96FI4);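 further: fluorescence at 594 nm from quenched duplex DNA oligonucleotides released by NEIL1 cleavage and strand separation, reported as reduction of this enzyme activity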
Description: Inhibition of NEIL1 by quantifying inhibition of NEIL1-mediated cleavage and dissociation of quenched duplex DNA oligonucleotides, measured as fluorescence at 594 nm.

[5] = target: T2, Single-strand selective monofunctional uracil DNA glycosylase (Homo sapiens) (UniProt Q53HV7);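 further: enzymatic SMUG1 assay coupled with APE1, reading fluorescence at 594 nm released when a quenched double-stranded DNA oligonucleotide substrate is cleaved and separated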
T2 sequence (whole entry): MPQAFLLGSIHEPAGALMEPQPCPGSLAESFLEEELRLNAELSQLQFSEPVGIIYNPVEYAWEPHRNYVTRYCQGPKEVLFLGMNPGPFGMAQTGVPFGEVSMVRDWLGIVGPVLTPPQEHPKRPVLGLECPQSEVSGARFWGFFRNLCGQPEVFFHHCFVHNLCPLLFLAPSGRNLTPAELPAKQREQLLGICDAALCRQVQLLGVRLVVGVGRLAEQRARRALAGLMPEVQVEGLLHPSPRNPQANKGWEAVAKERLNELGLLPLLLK
Description: Inhibition of SMUG1 by quantifying inhibition of SMUG1-mediated cleavage and dissociation of quenched duplex DNA oligonucleotides, measured as fluorescence at 594 nm. To generate a functional strand incision and increase turn-over this assay is coupled to APE1.

[6] = target: Methyl-CpG-binding domain protein 4 (Homo sapiens) (UniProt O95243);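 further: MBD4 activity read as fluorescence at 594 nm from cleavage and release of a quenched duplex DNA oligonucleotide, with APE1 coupled to incise the strand and raise turnover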
Description: Inhibition of MBD4 by quantifying inhibition of MBD4-mediated cleavage and dissociation of quenched duplex DNA oligonucleotides, measured as fluorescence at 594 nm. To generate a functional strand incision and increase turn-over this assay is coupled to APE1.

[7] = target: Uracil-DNA glycosylase (Homo sapiens) (UniProt P13051);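 further: UNG excision on a quenched double-stranded DNA oligo probe, with APE1 added for strand incision and turnover, read as fluorescence at 594 nm as strands separate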
Uracil-DNA glycosylase (Homo sapiens), sequence (P13051 whole entry): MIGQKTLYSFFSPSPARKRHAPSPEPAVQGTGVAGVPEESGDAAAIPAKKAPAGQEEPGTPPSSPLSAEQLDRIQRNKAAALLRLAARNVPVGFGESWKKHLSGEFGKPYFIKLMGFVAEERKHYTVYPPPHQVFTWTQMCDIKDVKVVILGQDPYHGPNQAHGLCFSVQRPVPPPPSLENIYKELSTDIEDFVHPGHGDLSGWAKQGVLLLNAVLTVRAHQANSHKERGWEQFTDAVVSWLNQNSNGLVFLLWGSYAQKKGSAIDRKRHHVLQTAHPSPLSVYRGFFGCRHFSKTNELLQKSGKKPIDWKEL
Description: Inhibition of UNG by quantifying inhibition of UNG-mediated cleavage and dissociation of quenched duplex DNA oligonucleotides, measured as fluorescence at 594 nm. To generate a functional strand incision and increase turn-over this assay is coupled to APE1.

Methyl-CpG-binding domain protein 4 (Homo sapiens), sequence (O95243 whole entry, the tested form may be a part): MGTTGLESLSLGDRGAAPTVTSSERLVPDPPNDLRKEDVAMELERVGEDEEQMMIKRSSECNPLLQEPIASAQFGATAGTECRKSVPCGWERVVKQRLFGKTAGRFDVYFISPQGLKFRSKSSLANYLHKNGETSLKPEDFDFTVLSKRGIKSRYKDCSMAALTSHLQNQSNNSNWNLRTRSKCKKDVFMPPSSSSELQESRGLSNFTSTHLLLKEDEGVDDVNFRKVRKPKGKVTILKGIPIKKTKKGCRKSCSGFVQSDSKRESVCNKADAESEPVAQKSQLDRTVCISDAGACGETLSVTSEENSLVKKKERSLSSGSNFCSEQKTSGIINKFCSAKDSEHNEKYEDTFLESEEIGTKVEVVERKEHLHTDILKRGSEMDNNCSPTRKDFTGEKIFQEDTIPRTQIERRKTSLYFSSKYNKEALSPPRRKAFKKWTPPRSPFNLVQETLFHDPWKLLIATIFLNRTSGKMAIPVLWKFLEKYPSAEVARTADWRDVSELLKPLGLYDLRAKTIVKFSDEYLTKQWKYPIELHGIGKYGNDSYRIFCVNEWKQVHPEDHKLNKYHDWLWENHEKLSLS
Endonuclease 8-like 1 (Homo sapiens), sequence (Q96FI4 whole entry): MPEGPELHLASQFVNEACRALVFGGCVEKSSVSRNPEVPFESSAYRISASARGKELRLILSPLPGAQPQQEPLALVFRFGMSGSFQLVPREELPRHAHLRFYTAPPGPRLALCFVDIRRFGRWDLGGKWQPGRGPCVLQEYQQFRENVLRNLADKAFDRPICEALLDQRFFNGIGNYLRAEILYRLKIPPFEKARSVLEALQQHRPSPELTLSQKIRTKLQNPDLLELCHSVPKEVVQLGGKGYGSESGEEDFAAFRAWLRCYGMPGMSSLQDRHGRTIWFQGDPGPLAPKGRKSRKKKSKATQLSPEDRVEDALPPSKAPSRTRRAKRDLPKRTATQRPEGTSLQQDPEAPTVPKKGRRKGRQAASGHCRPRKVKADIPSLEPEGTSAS
N-glycosylase/DNA lyase (Homo sapiens), sequence (O15527 whole entry): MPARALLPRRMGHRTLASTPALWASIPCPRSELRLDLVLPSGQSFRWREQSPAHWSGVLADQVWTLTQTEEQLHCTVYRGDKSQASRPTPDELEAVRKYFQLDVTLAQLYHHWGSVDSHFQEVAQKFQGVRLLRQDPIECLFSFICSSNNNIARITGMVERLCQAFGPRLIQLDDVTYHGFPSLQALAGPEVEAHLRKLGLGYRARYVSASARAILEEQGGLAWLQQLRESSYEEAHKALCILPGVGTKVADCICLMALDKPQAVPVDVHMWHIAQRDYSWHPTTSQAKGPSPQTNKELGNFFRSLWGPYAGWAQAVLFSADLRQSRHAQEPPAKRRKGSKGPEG
G/T mismatch-specific thymine DNA glycosylase (Homo sapiens), sequence (Q13569 whole entry): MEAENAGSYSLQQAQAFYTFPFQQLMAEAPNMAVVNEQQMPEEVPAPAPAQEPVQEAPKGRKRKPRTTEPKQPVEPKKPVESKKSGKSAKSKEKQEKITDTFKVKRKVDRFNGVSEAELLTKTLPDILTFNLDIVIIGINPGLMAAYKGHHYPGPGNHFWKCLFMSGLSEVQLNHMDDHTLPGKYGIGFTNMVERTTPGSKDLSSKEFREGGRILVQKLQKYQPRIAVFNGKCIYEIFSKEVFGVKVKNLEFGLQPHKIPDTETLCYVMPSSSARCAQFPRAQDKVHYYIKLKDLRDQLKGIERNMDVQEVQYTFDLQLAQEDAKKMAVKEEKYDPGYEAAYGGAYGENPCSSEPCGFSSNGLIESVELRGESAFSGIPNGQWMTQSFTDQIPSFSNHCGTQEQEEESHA

SMILES | inhibition [1] [%] | inhibition [2] [%] | inhibition [3] [%] | inhibition [4] [%] | inhibition [5] [%] | inhibition [6] [%] | inhibition [7] [%]
Cc1nc2sccn2c(=O)c1CCN1CCC(=C(c2ccc(F)cc2)c2ccc(F)cc2)CC1 | 4.32 | 20.8 | 7.75 | -4.65 | -6.91 |  | 
N=C(N)SCCc1c[nH]cn1 | -6.9 | -1.52 |  | -8.06 | -7.4 | 11.4 | 
CCNC(=O)c1cc2c(N3CCOCC3C)ccnc2[nH]1 (stereo not given) | -6.36 | 58.1 | -7.12 |  | 15.1 | 52.5 | -3.94
CC[C@H]1OC(=O)[C@H](C)[C@@H](O[C@H]2C[C@@](C)(OC)[C@@H](O)[C@H](C)O2)[C@H](C)[C@@H](O[C@@H]2O[C@H](C)C[C@H](N(C)C)[C@H]2O)[C@@]2(C)CC(C)=C(O2)[C@H](C)[C@@H](O)[C@]1(C)O |  | 0.145 | 4.76 | 3.06 | -6.48 |  | 
COc1cccc(OC)c1-c1cc(C(=O)NC2(C(=O)O)C3CC4CC(C3)CC2C4)nn1-c1ccc(C(=O)N(C)CCCN(C)C)cc1C(C)C (stereo not given) | 3.59 | 18.3 | 7.25 | 2.02 |  | 10.5 | -7.25
Cn1ncc2c(-c3c(-c4ccc(F)cn4)nn4c3COC(C)(C)C4)ccnc21 | -1.93 | 99.5 | -5.34 |  | 3.56 | 50.1 | 1.59
CC(C)COc1ccc(CNC(=O)N(Cc2ccc(F)cc2)C2CCN(C)CC2)cc1 | -7.83 | -0.163 | 8 | 2.32 |  |  | 
O=C(N[C@@H]1CC[C@@H](c2cccc(F)c2F)CN(CC(F)(F)F)C1=O)N1CCC(n2c(=O)[nH]c3ncccc32)CC1 | -8.48 | 0.452 | 4.76 | -5.1 |  |  | 
Cc1c(C(=O)O)cc(-c2ccc(C3CCNCC3)cc2)c2ccc(-c3ccc(C(F)(F)F)cc3)cc12 | 11.4 | 44.3 | -4.83 | -6.8 | 4.5 |  | 3.66
CC(C=CC1=C(C)CCCC1(C)C)=CC=CC(C)=CC(=O)O | 83.6 | 96.3 | -4.83 |  | 8.2 | 57.7 | -0.014
COc1cc(N2CCC(O)CC2)ccc1Nc1cc(Nc2ccccc2S(=O)(=O)C(C)C)c2cc[nH]c2n1 | 21.1 | 52.6 |  |  | 4.55 | 13.6 | 3.96
Cc1cc2c(-c3ccco3)cnc(N[C@H]3CCN(C)C[C@@H]3C(=O)NC3CCCCC3)c2[nH]c1=O |  | 22.3 | -2.27 | 0.316 |  | 29.8 | -1.62
Cc1ccc2c(c1)c1c(n2CCc2ccc(C)nc2)CCN(C)C1 |  | -5.76 | 3.01 | -8.95 | -3.57 |  | 
c1cc(OCCCN2CCCCC2)ccc1CN1CCCCC1 | -9.64 | 13.9 | -0.733 | -2.58 |  |  | 
CN1C2CCC1CC(OC(c1ccc(F)cc1)c1ccc(F)cc1)C2 (stereo not given) |  |  | -4.23 | 1.28 |  |  | -4.51
C=CC(=O)N1CCC([C@@H]2CCNc3c(C(N)=O)c(-c4ccc(Oc5ccccc5)cc4)nn32)CC1 | 6.47 | 49.9 |  | -8.45 | 20.1 |  | -0.527
Cc1noc([C@H]2C[C@@H](c3ccc(C(F)(F)F)cc3)CN(C(=O)N3CCS(=O)(=O)C3)C2)n1 | 1.56 | 53.6 | -5.59 |  | 5.39 | 42.2 | -0.51
O=S(=O)(c1ccccc1)c1cnc2c(N3CCNCC3)cccc2c1 | -2.8 |  | -5.97 | 6.47 | -2.7 |  | -8.69
NC(=O)[C@@H]1CCCN1C(=O)[C@H](Cc1c[nH]cn1)NC(=O)[C@@H]1CCC(=O)N1 | -2.75 | 10.8 | 12.7 | -9.1 | -2.65 | -3.57 | 
